Reference: patent US20100137449A1, “SUBSTITUTED 1,3-CYCLOPENTADIONE MULTI-TARGET PROTEIN KINASE MODULATORS OF CANCER, ANGIOGENESIS AND THE INFLAMMATORY PATHWAYS ASSOCIATED THEREWITH” (METAPROTEOMICS, LLC, priority 2007, published 2010)

Experiments:
Experiment in all cases: KinaseProfiler Assay
CaMKIIγ(h) = CaMKIIγ(h) (Homo sapiens, UniProt Q13555)
PASK(h) = PASK(h) (Homo sapiens, UniProt Q96RG2)
CK1γ3(h) = CK1γ3(h) (Homo sapiens, UniProt Q9Y6M4)
MELK(h) = MELK(h) (Homo sapiens, UniProt Q14680)
Rsk3(h) = Rsk3(h) (Homo sapiens, UniProt Q15349)
BTK(h) = BTK(h) (Homo sapiens, UniProt Q06187)
DAPK2(h) = DAPK2(h) (Homo sapiens, UniProt Q9UIK4)
SRPK2(h) = SRPK2(h) (Homo sapiens, UniProt P78362)
Aurora-A(h) = molecular target: T1, Aurora-A(h) (Homo sapiens, UniProt O14965)
T1 sequence (O14965 1-403): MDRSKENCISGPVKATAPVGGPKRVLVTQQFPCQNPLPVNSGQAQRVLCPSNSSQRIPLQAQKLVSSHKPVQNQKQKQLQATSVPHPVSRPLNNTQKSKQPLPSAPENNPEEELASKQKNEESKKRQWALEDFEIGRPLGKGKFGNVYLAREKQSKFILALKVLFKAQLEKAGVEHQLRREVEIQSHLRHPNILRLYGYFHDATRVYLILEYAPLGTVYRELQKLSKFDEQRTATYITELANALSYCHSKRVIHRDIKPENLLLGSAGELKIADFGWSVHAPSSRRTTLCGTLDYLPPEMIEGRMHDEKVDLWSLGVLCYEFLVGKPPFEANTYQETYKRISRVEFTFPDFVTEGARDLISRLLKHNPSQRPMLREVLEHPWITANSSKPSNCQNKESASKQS

P70S6K(h) = P70S6K(h) (Homo sapiens, UniProt P23443)
Met(h) = Met(h) (Homo sapiens, UniProt P08581)
NEK6(h) = NEK6(h) (Homo sapiens, UniProt Q9HC98)
MST3(h) = MST3(h) (Homo sapiens, UniProt Q9Y6E0)
Plk3(h) = Plk3(h) (Homo sapiens, UniProt Q9H4B4)
Sequence of Plk3(h) (Q9H4B4 whole entry): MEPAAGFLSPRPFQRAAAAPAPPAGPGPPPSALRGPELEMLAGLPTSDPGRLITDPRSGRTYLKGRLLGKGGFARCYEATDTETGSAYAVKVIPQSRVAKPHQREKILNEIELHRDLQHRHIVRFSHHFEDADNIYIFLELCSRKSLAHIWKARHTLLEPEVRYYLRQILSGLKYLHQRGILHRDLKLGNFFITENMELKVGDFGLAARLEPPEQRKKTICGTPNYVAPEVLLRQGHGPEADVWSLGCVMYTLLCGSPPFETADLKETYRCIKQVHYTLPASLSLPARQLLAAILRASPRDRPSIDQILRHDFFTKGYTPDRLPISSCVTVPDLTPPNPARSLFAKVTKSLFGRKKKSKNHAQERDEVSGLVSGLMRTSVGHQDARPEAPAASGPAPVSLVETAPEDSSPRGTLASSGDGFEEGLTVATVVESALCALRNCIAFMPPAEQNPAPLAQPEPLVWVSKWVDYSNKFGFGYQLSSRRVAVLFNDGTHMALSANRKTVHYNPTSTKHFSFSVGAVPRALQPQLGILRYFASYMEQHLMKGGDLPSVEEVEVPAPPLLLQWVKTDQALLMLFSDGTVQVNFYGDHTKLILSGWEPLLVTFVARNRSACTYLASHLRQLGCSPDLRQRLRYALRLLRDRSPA

Sequence of PASK(h) (Q96RG2 whole entry): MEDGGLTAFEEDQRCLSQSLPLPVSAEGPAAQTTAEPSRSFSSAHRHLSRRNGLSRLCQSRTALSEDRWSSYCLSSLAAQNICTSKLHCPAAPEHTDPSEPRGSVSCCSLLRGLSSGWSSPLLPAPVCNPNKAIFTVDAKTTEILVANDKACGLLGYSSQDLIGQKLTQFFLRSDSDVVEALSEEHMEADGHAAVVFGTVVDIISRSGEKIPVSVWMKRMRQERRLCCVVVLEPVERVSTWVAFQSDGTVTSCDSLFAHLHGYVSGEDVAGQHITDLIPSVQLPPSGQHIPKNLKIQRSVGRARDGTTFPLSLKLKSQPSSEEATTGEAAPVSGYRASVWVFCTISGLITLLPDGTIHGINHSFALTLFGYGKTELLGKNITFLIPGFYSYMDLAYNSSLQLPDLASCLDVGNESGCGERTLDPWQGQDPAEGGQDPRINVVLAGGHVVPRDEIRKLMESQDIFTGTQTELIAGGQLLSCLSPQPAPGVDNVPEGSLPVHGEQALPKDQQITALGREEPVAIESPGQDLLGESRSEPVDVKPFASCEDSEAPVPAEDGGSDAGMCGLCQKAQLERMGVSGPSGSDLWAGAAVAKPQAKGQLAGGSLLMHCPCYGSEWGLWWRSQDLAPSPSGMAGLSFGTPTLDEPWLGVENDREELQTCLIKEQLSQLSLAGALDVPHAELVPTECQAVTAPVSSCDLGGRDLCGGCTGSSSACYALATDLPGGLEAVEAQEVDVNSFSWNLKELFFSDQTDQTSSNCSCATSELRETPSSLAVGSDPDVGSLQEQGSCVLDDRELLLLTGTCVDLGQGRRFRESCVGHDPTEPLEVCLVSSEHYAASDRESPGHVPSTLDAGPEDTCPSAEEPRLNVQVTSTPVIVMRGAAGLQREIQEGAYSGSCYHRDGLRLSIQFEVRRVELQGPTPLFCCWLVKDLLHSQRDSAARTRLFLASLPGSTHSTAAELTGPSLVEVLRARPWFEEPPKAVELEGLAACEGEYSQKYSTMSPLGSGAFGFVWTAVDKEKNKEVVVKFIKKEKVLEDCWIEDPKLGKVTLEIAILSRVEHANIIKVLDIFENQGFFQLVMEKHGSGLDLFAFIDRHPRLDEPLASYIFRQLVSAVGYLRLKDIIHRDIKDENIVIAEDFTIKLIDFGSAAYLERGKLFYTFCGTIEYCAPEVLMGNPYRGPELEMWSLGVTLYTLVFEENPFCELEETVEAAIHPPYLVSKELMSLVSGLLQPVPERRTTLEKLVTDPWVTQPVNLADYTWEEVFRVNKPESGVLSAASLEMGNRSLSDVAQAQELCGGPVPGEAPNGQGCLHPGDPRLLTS
Sequence of SRPK2(h) (P78362 whole entry): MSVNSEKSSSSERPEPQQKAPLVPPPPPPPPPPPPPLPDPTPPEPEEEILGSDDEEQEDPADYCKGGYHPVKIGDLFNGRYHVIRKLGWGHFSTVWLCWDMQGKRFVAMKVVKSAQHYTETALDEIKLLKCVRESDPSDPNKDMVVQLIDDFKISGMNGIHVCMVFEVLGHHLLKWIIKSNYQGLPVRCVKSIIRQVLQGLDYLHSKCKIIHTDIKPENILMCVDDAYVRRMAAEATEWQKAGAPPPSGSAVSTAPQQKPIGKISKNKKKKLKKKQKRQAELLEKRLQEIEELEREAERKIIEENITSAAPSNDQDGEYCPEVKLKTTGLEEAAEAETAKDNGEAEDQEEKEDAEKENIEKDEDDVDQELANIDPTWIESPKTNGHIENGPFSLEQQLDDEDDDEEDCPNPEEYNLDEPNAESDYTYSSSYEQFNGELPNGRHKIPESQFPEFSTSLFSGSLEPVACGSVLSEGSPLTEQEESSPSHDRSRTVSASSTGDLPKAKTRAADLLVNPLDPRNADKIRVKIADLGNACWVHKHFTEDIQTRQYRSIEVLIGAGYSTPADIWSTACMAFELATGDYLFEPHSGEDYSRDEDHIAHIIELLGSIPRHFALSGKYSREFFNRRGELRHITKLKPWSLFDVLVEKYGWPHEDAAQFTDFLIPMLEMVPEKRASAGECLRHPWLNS
Sequence of P70S6K(h) (P23443 whole entry): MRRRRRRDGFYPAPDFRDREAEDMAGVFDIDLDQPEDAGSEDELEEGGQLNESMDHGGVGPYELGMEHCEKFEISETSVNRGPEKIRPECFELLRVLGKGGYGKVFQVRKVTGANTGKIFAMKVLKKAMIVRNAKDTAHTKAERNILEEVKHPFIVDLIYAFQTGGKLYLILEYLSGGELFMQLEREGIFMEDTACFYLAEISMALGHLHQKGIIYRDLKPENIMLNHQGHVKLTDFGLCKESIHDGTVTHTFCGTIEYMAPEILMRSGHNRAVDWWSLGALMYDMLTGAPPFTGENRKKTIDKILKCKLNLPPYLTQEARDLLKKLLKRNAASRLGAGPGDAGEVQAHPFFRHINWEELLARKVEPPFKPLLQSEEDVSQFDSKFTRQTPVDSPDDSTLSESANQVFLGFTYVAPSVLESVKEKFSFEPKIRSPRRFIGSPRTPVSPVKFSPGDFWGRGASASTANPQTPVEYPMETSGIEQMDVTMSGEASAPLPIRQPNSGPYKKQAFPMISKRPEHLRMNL
Sequence of CK1γ3(h) (Q9Y6M4 whole entry): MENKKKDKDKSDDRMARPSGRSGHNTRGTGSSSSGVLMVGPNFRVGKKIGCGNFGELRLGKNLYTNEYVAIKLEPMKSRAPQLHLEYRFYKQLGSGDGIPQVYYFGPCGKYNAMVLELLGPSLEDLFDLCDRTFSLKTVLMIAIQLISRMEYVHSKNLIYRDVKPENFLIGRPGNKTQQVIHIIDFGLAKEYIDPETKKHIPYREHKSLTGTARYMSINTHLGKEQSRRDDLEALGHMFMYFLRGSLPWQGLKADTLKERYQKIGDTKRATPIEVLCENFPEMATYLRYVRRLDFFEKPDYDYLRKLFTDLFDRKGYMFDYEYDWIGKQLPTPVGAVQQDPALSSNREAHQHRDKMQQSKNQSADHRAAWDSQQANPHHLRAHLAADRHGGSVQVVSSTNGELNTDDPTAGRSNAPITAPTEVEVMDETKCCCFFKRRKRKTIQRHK
Sequence of BTK(h) (Q06187 whole entry): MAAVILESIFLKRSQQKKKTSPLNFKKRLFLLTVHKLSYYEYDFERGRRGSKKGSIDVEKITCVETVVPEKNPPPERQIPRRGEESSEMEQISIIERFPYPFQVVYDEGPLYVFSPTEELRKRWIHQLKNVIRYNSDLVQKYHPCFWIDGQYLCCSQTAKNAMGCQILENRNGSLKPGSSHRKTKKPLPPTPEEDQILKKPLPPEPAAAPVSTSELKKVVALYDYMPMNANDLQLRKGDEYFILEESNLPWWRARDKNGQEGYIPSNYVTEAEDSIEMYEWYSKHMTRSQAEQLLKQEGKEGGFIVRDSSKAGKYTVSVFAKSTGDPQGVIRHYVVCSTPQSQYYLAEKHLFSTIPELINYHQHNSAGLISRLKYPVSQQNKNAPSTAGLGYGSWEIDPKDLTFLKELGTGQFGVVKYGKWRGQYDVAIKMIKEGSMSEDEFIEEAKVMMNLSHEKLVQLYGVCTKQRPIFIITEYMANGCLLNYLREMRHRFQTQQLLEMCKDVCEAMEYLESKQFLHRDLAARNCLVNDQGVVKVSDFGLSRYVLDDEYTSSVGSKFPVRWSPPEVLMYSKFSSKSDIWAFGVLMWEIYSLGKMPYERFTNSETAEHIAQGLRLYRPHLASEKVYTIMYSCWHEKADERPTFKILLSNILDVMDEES
Sequence of DAPK2(h) (Q9UIK4 whole entry): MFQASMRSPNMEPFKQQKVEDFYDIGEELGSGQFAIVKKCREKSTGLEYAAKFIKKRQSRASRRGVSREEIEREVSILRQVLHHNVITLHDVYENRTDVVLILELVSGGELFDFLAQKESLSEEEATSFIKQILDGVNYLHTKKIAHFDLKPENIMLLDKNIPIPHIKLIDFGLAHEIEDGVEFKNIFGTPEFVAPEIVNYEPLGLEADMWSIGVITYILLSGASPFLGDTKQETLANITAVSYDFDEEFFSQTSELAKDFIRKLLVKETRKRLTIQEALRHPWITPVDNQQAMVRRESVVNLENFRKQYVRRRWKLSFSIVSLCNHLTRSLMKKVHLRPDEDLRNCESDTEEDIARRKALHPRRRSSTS
Sequence of NEK6(h) (Q9HC98 whole entry): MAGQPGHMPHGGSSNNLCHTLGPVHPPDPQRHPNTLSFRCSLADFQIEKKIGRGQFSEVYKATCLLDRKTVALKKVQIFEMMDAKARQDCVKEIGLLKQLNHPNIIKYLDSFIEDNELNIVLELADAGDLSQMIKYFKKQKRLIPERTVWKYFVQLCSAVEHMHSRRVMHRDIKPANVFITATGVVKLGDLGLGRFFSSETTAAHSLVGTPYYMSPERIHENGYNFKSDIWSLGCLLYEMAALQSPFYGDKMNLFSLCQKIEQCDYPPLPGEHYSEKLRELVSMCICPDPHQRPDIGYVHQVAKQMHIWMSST

## CC(C)CCC(=O)[C@]1(O)C(O)=C(C(=O)C(C)C)C(=O)[C@H]1CCC(C)C [TH2, tetrahydroiso-cohumulone]
CaMKIIγ(h); 1 μg/ml
  kinase inhibition: 109% of control
CaMKIIγ(h); 5 μg/ml
  kinase inhibition: 109% of control
CaMKIIγ(h); 25 μg/ml
  kinase inhibition: 131% of control
CaMKIIγ(h); 50 μg/ml
  kinase inhibition: 108% of control
CaMKIIγ(h); 100 μg/ml
  kinase inhibition: 101% of control
PASK(h); 1 μg/ml
  kinase inhibition: 71% of control
PASK(h); 5 μg/ml
  kinase inhibition: 76% of control
PASK(h); 25 μg/ml
  kinase inhibition: 78% of control
PASK(h); 50 μg/ml
  kinase inhibition: 80% of control
PASK(h); 100 μg/ml
  kinase inhibition: 71% of control
CK1γ3(h); 1 μg/ml
  kinase inhibition: 96% of control
CK1γ3(h); 5 μg/ml
  kinase inhibition: 91% of control
CK1γ3(h); 25 μg/ml
  kinase inhibition: 83% of control
CK1γ3(h); 50 μg/ml
  kinase inhibition: 43% of control
CK1γ3(h); 100 μg/ml
  kinase inhibition: 34% of control
MELK(h); 1 μg/ml
  kinase inhibition: 116% of control
MELK(h); 5 μg/ml
  kinase inhibition: 104% of control
MELK(h); 25 μg/ml
  kinase inhibition: 102% of control
MELK(h); 50 μg/ml
  kinase inhibition: 98% of control
MELK(h); 100 μg/ml
  kinase inhibition: 83% of control
Rsk3(h); 1 μg/ml
  kinase inhibition: 112% of control
Rsk3(h); 5 μg/ml
  kinase inhibition: 106% of control
Rsk3(h); 25 μg/ml
  kinase inhibition: 97% of control
Rsk3(h); 50 μg/ml
  kinase inhibition: 88% of control
Rsk3(h); 100 μg/ml
  kinase inhibition: 85% of control
BTK(h); 1 μg/ml
  kinase inhibition: 98% of control
BTK(h); 5 μg/ml
  kinase inhibition: 96% of control
BTK(h); 25 μg/ml
  kinase inhibition: 67% of control
BTK(h); 50 μg/ml
  kinase inhibition: 59% of control
BTK(h); 100 μg/ml
  kinase inhibition: 47% of control
DAPK2(h); 1 μg/ml
  kinase inhibition: 61% of control
DAPK2(h); 5 μg/ml
  kinase inhibition: 56% of control
DAPK2(h); 25 μg/ml
  kinase inhibition: 55% of control
DAPK2(h); 50 μg/ml
  kinase inhibition: 52% of control
DAPK2(h); 100 μg/ml
  kinase inhibition: 49% of control
SRPK2(h); 1 μg/ml
  kinase inhibition: 105% of control
SRPK2(h); 5 μg/ml
  kinase inhibition: 104% of control
SRPK2(h); 25 μg/ml
  kinase inhibition: 99% of control
SRPK2(h); 50 μg/ml
  kinase inhibition: 91% of control
SRPK2(h); 100 μg/ml
  kinase inhibition: 88% of control
Aurora-A(h); 1 μg/ml
  kinase inhibition: 65% of control
Aurora-A(h); 5 μg/ml
  kinase inhibition: 24% of control
Aurora-A(h); 25 μg/ml
  kinase inhibition: 71% of control
Aurora-A(h); 50 μg/ml
  kinase inhibition: 57% of control
Aurora-A(h); 100 μg/ml
  kinase inhibition: 54% of control
P70S6K(h); 1 μg/ml
  kinase inhibition: 108% of control
P70S6K(h); 5 μg/ml
  kinase inhibition: 108% of control
P70S6K(h); 25 μg/ml
  kinase inhibition: 108% of control
P70S6K(h); 50 μg/ml
  kinase inhibition: 92% of control
P70S6K(h); 100 μg/ml
  kinase inhibition: 69% of control
Met(h); 1 μg/ml
  kinase inhibition: 114% of control
Met(h); 5 μg/ml
  kinase inhibition: 113% of control
Met(h); 25 μg/ml
  kinase inhibition: 97% of control
Met(h); 50 μg/ml
  kinase inhibition: 83% of control
Met(h); 100 μg/ml
  kinase inhibition: 61% of control
NEK6(h); 1 μg/ml
  kinase inhibition: 103% of control
NEK6(h); 5 μg/ml
  kinase inhibition: 100% of control
NEK6(h); 25 μg/ml
  kinase inhibition: 79% of control
NEK6(h); 50 μg/ml
  kinase inhibition: 67% of control
NEK6(h); 100 μg/ml
  kinase inhibition: 53% of control
MST3(h); 1 μg/ml
  kinase inhibition: 107% of control
MST3(h); 5 μg/ml
  kinase inhibition: 89% of control
MST3(h); 25 μg/ml
  kinase inhibition: 87% of control
MST3(h); 50 μg/ml
  kinase inhibition: 46% of control
MST3(h); 100 μg/ml
  kinase inhibition: 45% of control
Plk3(h); 1 μg/ml
  kinase inhibition: 120% of control
Plk3(h); 5 μg/ml
  kinase inhibition: 105% of control
Plk3(h); 25 μg/ml
  kinase inhibition: 104% of control
Plk3(h); 50 μg/ml
  kinase inhibition: 99% of control
Plk3(h); 100 μg/ml
  kinase inhibition: 86% of control
